Results as given in the CheMixHub viscosity set.
± gives the uncertainty stated by the source.

Assay: xn = mol fraction of the nth substance listed

CCCCNCCCC + CCCCOCCO
viscosity [mPa·s], 100 kPa
Conditions	298.15 K	303.15 K	308.15 K
x2 = 0.0501	0.94 ± 0.03	0.85 ± 0.03	0.8 ± 0.03
x2 = 0.1169	1.1 ± 0.03	1.01 ± 0.03	0.93 ± 0.03
x2 = 0.1502	1.19 ± 0.03	1.07 ± 0.03	1 ± 0.03
x2 = 0.2006	1.34 ± 0.03	1.17 ± 0.03	1.08 ± 0.03
x2 = 0.3001	1.58 ± 0.03	1.35 ± 0.03	1.25 ± 0.03
x2 = 0.4001	1.82 ± 0.03	1.55 ± 0.03	1.43 ± 0.03
x2 = 0.5	2.14 ± 0.03	1.83 ± 0.03	1.63 ± 0.03
x2 = 0.5999	2.42 ± 0.03	2.12 ± 0.03	1.84 ± 0.03
x2 = 0.6998	2.7 ± 0.03	2.33 ± 0.03	2.09 ± 0.03
x2 = 0.8	2.97 ± 0.03	2.5 ± 0.03	2.28 ± 0.03
x2 = 0.8965	3.1 ± 0.03	2.61 ± 0.03	2.38 ± 0.03
x2 = 0.95	2.97 ± 0.03	2.56 ± 0.03	2.32 ± 0.03

CCCCNCCCC + CCCO
viscosity [mPa·s], 101.33 kPa
Conditions	x1 = 0.0988	x1 = 0.1893	x1 = 0.3012	x1 = 0.4041	x1 = 0.4964	x1 = 0.59	x1 = 0.693	x1 = 0.7809	x1 = 0.8947
303.15 K	1.681 ± 0.02	1.564 ± 0.019	1.404 ± 0.017	1.276 ± 0.016	1.176 ± 0.015	1.084 ± 0.013	0.9942 ± 0.013	0.9209 ± 0.012	0.832 ± 0.011
313.15 K	1.309 ± 0.016	1.228 ± 0.015	1.123 ± 0.014	1.03 ± 0.013	0.9494 ± 0.012	0.8887 ± 0.011	0.8255 ± 0.011	0.7761 ± 0.01	0.7157 ± 0.0095

COCCO + CCO
viscosity [mPa·s], 101 kPa
Conditions	x1 = 0.06304	x1 = 0.133	x1 = 0.206	x1 = 0.2876	x1 = 0.3771	x1 = 0.476	x1 = 0.5856	x1 = 0.7078	x1 = 0.8449
298.15 K	1.051 ± 0.11	1.024 ± 0.1	1.019 ± 0.1	1.031 ± 0.1	1.053 ± 0.11	1.084 ± 0.11	1.173 ± 0.12	1.286 ± 0.13	1.415 ± 0.14
308.15 K	0.8342 ± 0.084	0.8445 ± 0.085	0.8576 ± 0.086	0.8812 ± 0.088	0.9063 ± 0.091	0.9409 ± 0.094	1.003 ± 0.1	1.07 ± 0.11	1.105 ± 0.11
318.15 K	0.7622 ± 0.076	0.7704 ± 0.077	0.773 ± 0.077	0.8002 ± 0.08	0.847 ± 0.085	0.868 ± 0.087	0.911 ± 0.091	0.923 ± 0.093	0.9633 ± 0.097
